pIC50: −log10 of the molar value. Bridge positions count the residues as written; N and C are the ends. Peptide text beside a SMILES is read from it.
Key:
Rat α2β4 nAChR = target: T1, Rat α2β4 nAChR (Rattus norvegicus, UniProt P12389+P12392); experiment: cell-based
T1 construct: expressed in transfected cells; host or cells: Xenopus oocytes injected with cRNA

Rat α2β2 nAChR = target: T2, Rat α2β2 nAChR (Rattus norvegicus, UniProt P12389+P12390); experiment: cell-based
T2 construct: expressed in transfected cells; host or cells: Xenopus oocytes injected with cRNA

Rat α4β2 nAChR = target: T3, Rat α4β2 nAChR (Rattus norvegicus, UniProt P09483+P12390); experiment: cell-based
T3 construct: expressed in transfected cells; host or cells: Xenopus oocytes injected with cRNA

Rat α6/α3β4 nAChR = target: T4, Rat α6/α3β4 nAChR (Rattus norvegicus, UniProt P04757+P12392+P43143); experiment: cell-based
T4 construct: expressed in transfected cells; host or cells: Xenopus oocytes injected with cRNA

Rat α6/α3β2β3 nAChR = target: T5, Rat α6/α3β2β3 nAChR (Rattus norvegicus, UniProt P04757+P12390+P12391+P43143); experiment: cell-based
T5 construct: expressed in transfected cells; host or cells: Xenopus oocytes injected with cRNA

Rat α3β4 nAChR = target: T6, Rat α3β4 nAChR (Rattus norvegicus, UniProt P04757+P12392); experiment: cell-based
T6 construct: expressed in transfected cells; host or cells: Xenopus oocytes injected with cRNA

Rat α3β2 nAChR = target: T7, Rat α3β2 nAChR (Rattus norvegicus, UniProt P04757+P12390); experiment: cell-based
T7 construct: expressed in transfected cells; host or cells: Xenopus oocytes injected with cRNA

Rat α7 nAChR = target: T8, Rat α7 nAChR (Rattus norvegicus, UniProt Q05941); experiment: cell-based
T8 construct: expressed in transfected cells; host or cells: Xenopus oocytes injected with cRNA

Rat α4β4 nAChR = target: T9, Rat α4β4 nAChR (Rattus norvegicus, UniProt P09483+P12392); experiment: cell-based
T9 construct: expressed in transfected cells; host or cells: Xenopus oocytes injected with cRNA

Rat α9α10 nAChR = target: T10, Rat α9α10 nAChR (Rattus norvegicus, UniProt P43144+Q9JLB5); experiment: cell-based
T10 construct: expressed in transfected cells; host or cells: Xenopus oocytes injected with cRNA

α9α10 nAChR [1] = target: T11, α9α10 nAChR (Rattus norvegicus, UniProt P43144+Q9JLB5); type: cell-based
T11 construct: expressed in transfected cells; host or cells: Xenopus oocytes injected with cRNA

GABAB receptors = details: cited from earlier work
α9α10 nAChR [2] = details: cited from earlier work
α3β4 nAChR = details: cited from earlier work
α6/α3β2β3 nAChR = details: cited from earlier work

T6 sequence (P04757 26-499 limits assumed): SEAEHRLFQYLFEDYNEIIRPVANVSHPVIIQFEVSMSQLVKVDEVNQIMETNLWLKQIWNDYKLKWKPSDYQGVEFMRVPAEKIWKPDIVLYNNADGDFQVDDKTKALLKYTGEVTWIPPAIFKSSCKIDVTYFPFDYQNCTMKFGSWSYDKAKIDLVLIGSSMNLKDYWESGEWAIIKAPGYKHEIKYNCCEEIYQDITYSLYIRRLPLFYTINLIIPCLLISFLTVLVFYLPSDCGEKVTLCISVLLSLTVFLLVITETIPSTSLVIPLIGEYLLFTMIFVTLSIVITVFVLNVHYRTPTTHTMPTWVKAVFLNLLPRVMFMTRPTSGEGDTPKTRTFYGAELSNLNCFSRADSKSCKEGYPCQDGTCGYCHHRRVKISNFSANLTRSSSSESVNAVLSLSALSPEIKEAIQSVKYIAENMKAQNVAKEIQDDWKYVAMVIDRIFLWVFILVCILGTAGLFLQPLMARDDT
T6 sequence (P12392 21-495 limits assumed): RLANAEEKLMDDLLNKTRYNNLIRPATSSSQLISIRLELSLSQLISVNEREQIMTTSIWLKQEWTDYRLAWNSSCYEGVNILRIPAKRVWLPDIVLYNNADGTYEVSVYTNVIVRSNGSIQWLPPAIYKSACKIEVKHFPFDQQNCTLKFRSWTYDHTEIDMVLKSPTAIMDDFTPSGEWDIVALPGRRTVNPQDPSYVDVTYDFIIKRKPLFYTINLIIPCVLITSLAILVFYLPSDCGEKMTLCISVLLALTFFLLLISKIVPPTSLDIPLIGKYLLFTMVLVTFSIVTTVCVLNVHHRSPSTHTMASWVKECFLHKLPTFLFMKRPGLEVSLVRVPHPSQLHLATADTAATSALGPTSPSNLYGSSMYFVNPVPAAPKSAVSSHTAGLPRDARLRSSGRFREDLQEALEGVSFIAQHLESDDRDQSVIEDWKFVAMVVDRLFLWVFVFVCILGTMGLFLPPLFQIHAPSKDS
T3 sequence (P09483 31-630 limits assumed): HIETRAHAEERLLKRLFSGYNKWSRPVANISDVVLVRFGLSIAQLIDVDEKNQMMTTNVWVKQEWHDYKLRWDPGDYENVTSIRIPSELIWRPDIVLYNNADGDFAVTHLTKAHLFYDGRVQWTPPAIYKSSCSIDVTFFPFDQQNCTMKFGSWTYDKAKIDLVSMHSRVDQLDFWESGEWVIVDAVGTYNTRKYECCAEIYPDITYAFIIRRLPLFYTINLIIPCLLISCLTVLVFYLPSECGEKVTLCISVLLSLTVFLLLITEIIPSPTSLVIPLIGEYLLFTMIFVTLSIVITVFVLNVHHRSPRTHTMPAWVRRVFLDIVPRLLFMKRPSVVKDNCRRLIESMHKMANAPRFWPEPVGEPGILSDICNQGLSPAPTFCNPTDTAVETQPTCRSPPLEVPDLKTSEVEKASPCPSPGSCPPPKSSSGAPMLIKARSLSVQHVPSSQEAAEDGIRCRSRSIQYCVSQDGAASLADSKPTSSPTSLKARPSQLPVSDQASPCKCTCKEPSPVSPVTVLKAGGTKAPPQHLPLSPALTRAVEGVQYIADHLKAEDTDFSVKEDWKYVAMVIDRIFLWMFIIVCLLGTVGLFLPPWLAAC
T3 sequence (P12390 25-500 limits assumed): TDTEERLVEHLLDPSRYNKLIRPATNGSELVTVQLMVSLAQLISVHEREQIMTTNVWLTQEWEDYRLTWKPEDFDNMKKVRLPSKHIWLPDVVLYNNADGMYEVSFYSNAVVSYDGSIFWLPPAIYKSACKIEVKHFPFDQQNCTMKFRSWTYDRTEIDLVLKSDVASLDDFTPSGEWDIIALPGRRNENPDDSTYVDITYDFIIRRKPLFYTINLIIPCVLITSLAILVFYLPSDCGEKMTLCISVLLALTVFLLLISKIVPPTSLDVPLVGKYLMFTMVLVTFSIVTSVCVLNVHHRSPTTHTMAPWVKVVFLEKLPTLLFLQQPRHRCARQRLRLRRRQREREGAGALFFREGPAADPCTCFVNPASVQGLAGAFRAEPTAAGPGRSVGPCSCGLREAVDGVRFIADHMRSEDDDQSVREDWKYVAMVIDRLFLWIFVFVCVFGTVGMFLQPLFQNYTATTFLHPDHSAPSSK
T8 sequence (Q05941 23-502 limits assumed): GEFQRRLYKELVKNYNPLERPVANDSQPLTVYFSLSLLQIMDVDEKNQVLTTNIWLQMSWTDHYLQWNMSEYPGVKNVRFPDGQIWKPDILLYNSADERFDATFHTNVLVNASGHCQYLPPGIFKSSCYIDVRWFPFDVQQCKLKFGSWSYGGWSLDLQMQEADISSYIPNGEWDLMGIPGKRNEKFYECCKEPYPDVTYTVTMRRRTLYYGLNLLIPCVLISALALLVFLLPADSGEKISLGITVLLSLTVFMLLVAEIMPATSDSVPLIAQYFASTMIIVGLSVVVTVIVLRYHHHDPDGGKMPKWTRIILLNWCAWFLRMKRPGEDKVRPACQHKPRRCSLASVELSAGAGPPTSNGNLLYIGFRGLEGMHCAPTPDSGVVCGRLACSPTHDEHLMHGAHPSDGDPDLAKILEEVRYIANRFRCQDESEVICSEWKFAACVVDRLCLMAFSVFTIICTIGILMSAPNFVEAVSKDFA
T10 sequence (P43144 26-479 limits assumed): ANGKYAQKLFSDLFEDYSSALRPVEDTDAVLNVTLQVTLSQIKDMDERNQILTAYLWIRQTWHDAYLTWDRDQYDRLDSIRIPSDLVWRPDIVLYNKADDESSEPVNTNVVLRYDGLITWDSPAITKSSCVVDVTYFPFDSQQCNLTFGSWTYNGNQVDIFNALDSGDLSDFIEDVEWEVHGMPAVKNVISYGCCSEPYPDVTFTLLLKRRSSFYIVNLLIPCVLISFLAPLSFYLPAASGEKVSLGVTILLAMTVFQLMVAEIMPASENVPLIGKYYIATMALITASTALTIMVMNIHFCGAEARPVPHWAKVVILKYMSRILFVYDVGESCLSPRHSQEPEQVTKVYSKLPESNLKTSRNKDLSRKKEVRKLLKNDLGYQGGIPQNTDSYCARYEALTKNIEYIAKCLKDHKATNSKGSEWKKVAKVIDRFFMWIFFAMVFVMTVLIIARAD
T10 sequence (Q9JLB5 25-447 limits assumed): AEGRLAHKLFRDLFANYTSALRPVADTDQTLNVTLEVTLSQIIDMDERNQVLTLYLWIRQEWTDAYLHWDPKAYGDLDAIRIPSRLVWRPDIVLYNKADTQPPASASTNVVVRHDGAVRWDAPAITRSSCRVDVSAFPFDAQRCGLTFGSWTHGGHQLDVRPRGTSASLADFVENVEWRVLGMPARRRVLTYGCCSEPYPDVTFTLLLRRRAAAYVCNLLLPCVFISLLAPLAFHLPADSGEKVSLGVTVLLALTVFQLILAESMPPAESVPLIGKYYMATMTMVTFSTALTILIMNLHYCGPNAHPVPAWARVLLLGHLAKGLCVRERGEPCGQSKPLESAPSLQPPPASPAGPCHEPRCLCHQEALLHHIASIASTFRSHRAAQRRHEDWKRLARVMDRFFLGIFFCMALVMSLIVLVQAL
T7 sequence (P04757 26-499 limits assumed): as the sequence (P04757 26-499 limits assumed) above
T7 sequence (P12390 25-500 limits assumed): as the sequence (P12390 25-500 limits assumed) above
T9 sequence (P09483 31-630 limits assumed): as the sequence (P09483 31-630 limits assumed) above
T9 sequence (P12392 21-495 limits assumed): as the sequence (P12392 21-495 limits assumed) above
T1 sequence (P12389 28-511 limits assumed): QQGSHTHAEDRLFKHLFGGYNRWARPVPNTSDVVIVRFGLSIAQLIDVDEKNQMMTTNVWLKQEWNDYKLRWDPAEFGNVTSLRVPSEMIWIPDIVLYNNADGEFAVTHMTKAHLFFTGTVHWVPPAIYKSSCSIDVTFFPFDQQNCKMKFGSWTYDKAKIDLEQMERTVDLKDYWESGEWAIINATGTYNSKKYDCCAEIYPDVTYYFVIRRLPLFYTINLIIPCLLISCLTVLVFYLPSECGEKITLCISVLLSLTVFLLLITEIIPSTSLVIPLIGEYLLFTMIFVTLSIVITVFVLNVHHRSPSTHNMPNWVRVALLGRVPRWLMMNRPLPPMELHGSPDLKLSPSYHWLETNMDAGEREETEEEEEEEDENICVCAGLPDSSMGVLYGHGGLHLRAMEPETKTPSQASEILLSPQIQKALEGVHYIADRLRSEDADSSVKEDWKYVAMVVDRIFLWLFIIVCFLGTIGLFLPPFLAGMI
T1 sequence (P12392 21-495 limits assumed): as the sequence (P12392 21-495 limits assumed) above
T2 sequence (P12389 28-511 limits assumed): as the sequence (P12389 28-511 limits assumed) above
T2 sequence (P12390 25-500 limits assumed): as the sequence (P12390 25-500 limits assumed) above
T4 sequence (P43143+P04757 fused with the stated changes): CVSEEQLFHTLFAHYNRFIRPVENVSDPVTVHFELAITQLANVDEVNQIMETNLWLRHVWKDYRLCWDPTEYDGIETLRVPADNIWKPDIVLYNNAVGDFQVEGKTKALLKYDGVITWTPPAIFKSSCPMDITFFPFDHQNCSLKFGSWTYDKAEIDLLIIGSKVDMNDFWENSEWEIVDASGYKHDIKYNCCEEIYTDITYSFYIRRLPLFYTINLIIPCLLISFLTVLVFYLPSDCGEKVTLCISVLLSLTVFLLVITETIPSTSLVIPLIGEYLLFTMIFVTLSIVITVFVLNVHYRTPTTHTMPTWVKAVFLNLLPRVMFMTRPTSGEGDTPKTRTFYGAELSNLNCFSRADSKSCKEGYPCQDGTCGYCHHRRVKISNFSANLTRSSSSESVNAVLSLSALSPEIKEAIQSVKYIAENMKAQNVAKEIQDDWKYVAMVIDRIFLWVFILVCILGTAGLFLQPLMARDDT
T4 sequence (P12392 21-495): as the sequence (P12392 21-495 limits assumed) above
T11 sequence (P43144 26-479 limits assumed): as the sequence (P43144 26-479 limits assumed) above
T11 sequence (Q9JLB5 25-447 limits assumed): as the sequence (Q9JLB5 25-447 limits assumed) above

Q: With `CC(C)C[C@@H]1NC(=O)[C@@H](NC(=O)[C@H](CCCNC(=N)N)NC(=O)[C@@H](N)C(C)C)CSSC[C@@H](C(=O)N[C@H]2CSSC[C@@H](C(=O)N[C@H](C(=O)N[C@@H](Cc3ccc(O)cc3)C(=O)N[C@@H](Cc3ccc(O)cc3)C(=O)N[C@H](C(=O)N[C@@H](CCC(N)=O)C(=O)N[C@@H](CO)C(=O)N[C@@H](CCCNC(=N)N)C(=O)N[C@@H](CCC(=O)O)C(=O)O)[C@@H](C)O)C(C)C)NC(=O)[C@H](CCCNC(=N)N)NC(=O)[C@H](CO)NC(=O)[C@H](Cc3c[nH]cn3)NC(=O)[C@H](CCCNC(=N)N)NC(=O)[C@H](C)NC(=O)[C@H](Cc3ccccc3)NC(=O)[C@H](CO)NC(=O)[C@@H]3CCCN3C(=O)CNC(=O)[C@H](CCCCN)NC(=O)[C@H](CCC(N)=O)NC2=O)NC(=O)[C@@H]2CCCN2C(=O)[C@@H]2CCCN2C(=O)[C@H](CCCNC(=N)N)NC(=O)[C@H](Cc2ccccc2)NC(=O)[C@H](CC(C)C)NC(=O)[C@H](CCCCN)NC(=O)[C@H](CC(N)=O)NC(=O)[C@@H]2CCCN2C(=O)[C@H](CCC(N)=O)NC(=O)[C@H](C)NC(=O)CNC(=O)[C@H](CO)NC(=O)[C@H](CCCCN)NC(=O)[C@H](CCC(=O)O)NC1=O` [αB-VxXXIVA [1], [2]] (H-VRCLEKSGAQPNKLFRPPCCQKGPSFARHSRCVYYTQSRE-OH; disulfide 3-19, 20-32) as the molecule, how does the pIC50 (Rat α2β4 nAChR) read?
A: The pIC50 was less than 4.52.

Q: And the pIC50 (Rat α2β2 nAChR)?
A: The pIC50 was 4.63.

Q: What about the pIC50 (Rat α4β2 nAChR) of the same molecule?
A: Its pIC50 is less than 4.52.

Q: And the pIC50 (Rat α6/α3β4 nAChR)?
A: Its pIC50 is 4.52.

Q: And the pIC50 (Rat α6/α3β2β3 nAChR)?
A: The pIC50 was 4.91.

Q: What about the pIC50 (Rat α3β4 nAChR) of the same molecule?
A: The pIC50 was less than 4.52.

Q: And the pIC50 (Rat α3β2 nAChR)?
A: Its pIC50 is less than 4.52.

Q: What about the pIC50 (Rat α7 nAChR) of the same molecule?
A: The pIC50 was less than 4.52.

Q: And the pIC50 (Rat α4β4 nAChR)?
A: Its pIC50 is less than 4.52.

Q: What about the pIC50 (Rat α9α10 nAChR) of the same molecule?
A: The pIC50 was 5.92.

Q: With `CC(C)C[C@@H]1NC(=O)[C@@H](NC(=O)[C@H](CCCNC(=N)N)NC(=O)[C@@H](N)C(C)C)CSSC[C@@H]2NC(=O)[C@H](CSSC[C@@H](C(=O)N[C@H](C(=O)N[C@@H](Cc3ccc(O)cc3)C(=O)N[C@@H](Cc3ccc(O)cc3)C(=O)N[C@H](C(=O)N[C@@H](CCC(N)=O)C(=O)N[C@@H](CO)C(=O)N[C@@H](CCCNC(=N)N)C(=O)N[C@@H](CCC(=O)O)C(=O)O)[C@@H](C)O)C(C)C)NC(=O)[C@H](CCCNC(=N)N)NC(=O)[C@H](CO)NC(=O)[C@H](Cc3c[nH]cn3)NC(=O)[C@H](CCCNC(=N)N)NC(=O)[C@H](C)NC(=O)[C@H](Cc3ccccc3)NC(=O)[C@H](CO)NC(=O)[C@@H]3CCCN3C(=O)CNC(=O)[C@H](CCCCN)NC(=O)[C@H](CCC(N)=O)NC2=O)NC(=O)[C@@H]2CCCN2C(=O)[C@@H]2CCCN2C(=O)[C@H](CCCNC(=N)N)NC(=O)[C@H](Cc2ccccc2)NC(=O)[C@H](CC(C)C)NC(=O)[C@H](CCCCN)NC(=O)[C@H](CC(N)=O)NC(=O)[C@@H]2CCCN2C(=O)[C@H](CCC(N)=O)NC(=O)[C@H](C)NC(=O)CNC(=O)[C@H](CO)NC(=O)[C@H](CCCCN)NC(=O)[C@H](CCC(=O)O)NC1=O` [αB-VxXXIVA [1], [3]] (H-VRCLEKSGAQPNKLFRPPCCQKGPSFARHSRCVYYTQSRE-OH; disulfide 3-20, 19-32) as the molecule, how does the pIC50 (Rat α2β4 nAChR) read?
A: Its pIC50 is less than 4.52.

Q: And the pIC50 (Rat α2β2 nAChR)?
A: The pIC50 was less than 4.52.

Q: And the pIC50 (Rat α4β2 nAChR)?
A: Its pIC50 is less than 4.52.

Q: And the pIC50 (Rat α6/α3β4 nAChR)?
A: The pIC50 was less than 4.52.

Q: And the pIC50 (Rat α6/α3β2β3 nAChR)?
A: The pIC50 was less than 4.52.

Q: What about the pIC50 (Rat α3β4 nAChR) of the same molecule?
A: The pIC50 was less than 4.52.

Q: What about the pIC50 (Rat α3β2 nAChR) of the same molecule?
A: Its pIC50 is less than 4.52.

Q: And the pIC50 (Rat α7 nAChR)?
A: Its pIC50 is less than 4.52.

Q: What about the pIC50 (Rat α4β4 nAChR) of the same molecule?
A: Its pIC50 is less than 4.52.

Q: What about the pIC50 (Rat α9α10 nAChR) of the same molecule?
A: Its pIC50 is 5.41.

Q: What does the source list for `CC(C)C[C@@H]1NC(=O)[C@@H](NC(=O)[C@H](CCCNC(=N)N)NC(=O)[C@@H](N)C(C)C)CSSC[C@@H](C(=O)N[C@H](C(=O)N[C@@H](Cc2ccc(O)cc2)C(=O)N[C@@H](Cc2ccc(O)cc2)C(=O)N[C@H](C(=O)N[C@@H](CCC(N)=O)C(=O)N[C@@H](CO)C(=O)N[C@@H](CCCNC(=N)N)C(=O)N[C@@H](CCC(=O)O)C(=O)O)[C@@H](C)O)C(C)C)NC(=O)[C@H](CCCNC(=N)N)NC(=O)[C@H](CO)NC(=O)[C@H](Cc2c[nH]cn2)NC(=O)[C@H](CCCNC(=N)N)NC(=O)[C@H](C)NC(=O)[C@H](Cc2ccccc2)NC(=O)[C@H](CO)NC(=O)[C@@H]2CCCN2C(=O)CNC(=O)[C@H](CCCCN)NC(=O)[C@H](CCC(N)=O)NC(=O)[C@@H]2CSSC[C@H](NC(=O)[C@@H]3CCCN3C(=O)[C@@H]3CCCN3C(=O)[C@H](CCCNC(=N)N)NC(=O)[C@H](Cc3ccccc3)NC(=O)[C@H](CC(C)C)NC(=O)[C@H](CCCCN)NC(=O)[C@H](CC(N)=O)NC(=O)[C@@H]3CCCN3C(=O)[C@H](CCC(N)=O)NC(=O)[C@H](C)NC(=O)CNC(=O)[C@H](CO)NC(=O)[C@H](CCCCN)NC(=O)[C@H](CCC(=O)O)NC1=O)C(=O)N2` [αB-VxXXIVA [1], [4]] (H-VRCLEKSGAQPNKLFRPPCCQKGPSFARHSRCVYYTQSRE-OH; disulfide 3-32, 19-20)?
A: pIC50 (Rat α4β2 nAChR): < 4.52; pIC50 (Rat α3β4 nAChR): < 4.52; pIC50 (Rat α7 nAChR): < 4.52; block in the presence of Ba++ (in words) (α9α10 nAChR [1]): did not potently block; pIC50 (Rat α9α10 nAChR): < 4.52; activity at nAChRs (in words) (Rat α9α10 nAChR): inactive; block of α9α10 current (Rat α9α10 nAChR): less than 15%

Q: For α-Conotoxin Vc1.1, which “activity at GABAB receptors” value (GABAB receptors) is on record?
A: Its value is “activate GABAB receptors”.

Q: And the pIC50 (α9α10 nAChR [2])?
A: Its pIC50 is 8.30.

Q: What about the pIC50 (α3β4 nAChR) of the same molecule?
A: Its pIC50 is 5.38.

Q: What about the pIC50 (α6/α3β2β3 nAChR) of the same molecule?
A: The pIC50 was 6.85.

Reference: article PMC3559828 (PLoS ONE, 2013)
